# Measurements from patent US12097173B2, “Volatile organic compound formulations having antimicrobial activity” (priority 2019, dated 2024).
# Tests used:
# Assay type in all cases: cell-based
# Cercospora beticola = experiment: plate bioassay of volatile test mixtures, growth inhibition; settings: for percent inhibition of the growth of Cercospora beticola: Table 4, 30 hr at room temperature, compared to control
# Description: (§1) FIG. 1 illustrates a plate bioassay to determine the bioactivity of various esters when combined with a 1:1 mix of the two organic acids as per Table 2. The test organisms were as follows—Cercospora (dark-lower left bottom) then clockwise—Phytophthora, Verticillium, Sclerotinia, Pythium. Fusarium, Trichoderma, Rhizoctonia, and Aspergillus. The streaks were Saccharomyces (far right bottom) then Candida, E coli and Bacillus (left bottom). A=control plate, and B=plate with System 1 after incubation for 30 hr.
# (§2) FIG. 9 depicts the biological activities of various test mixtures against a panel of test microbes. A small plug of each organism was placed in the periphery of the PDA plate. In the center well was placed the test solution in the plastic cup holder. A control plate (A) was also set up. After 30 hr the growth of the test organisms was compared to that of the control and the % inhibition was calculated. The (B) plate contained the test mixture. Measurements were made 30 hr after plate set up.
# (§3) FIG. 1. Indicates how the assays were done to yield the data sets in Table 1. The various esters were combined with a 1:1 mixture of propanoic acid and isobutryic acid and these were added 7:2 V/V with the ester to be tested.
# (§4) Shown in Table 1, are the inhibition and killing effects of propanoic acid, and isobutryic acid together and alone and with various esters. The tests were conducted over the course of 30 hr at 22° C. Measurements were made on appropriate controls and thus the percentage of inhibition calculations could be made on treatments vs the growth on a control organism (non-treated). The bacteria and yeast like organisms were evaluated on the basis of relative growth rates after 30 hr. Those highlighted areas on the table show those compounds (esters) having the most compatibility with propanoic and isobutryic acid 1:1 v/v mixtures with the appropriate esters at a 7:2 ratio—Systems 1 and 2 above. It is from this test that Systems 1 and 2 were discovered. The acids were added at […] individually and combination of the esters with the acids were added at the […] in the plate assay.
# as §2, with “Tests were conducted as similarly described for Systems 1 and 2 above (FIG. 9) to ascertain” for “FIG. 9 depicts”
# Phytophthora cinnamomi = experiment: as above; settings: for percent inhibition of the growth of Phytophthora cinnamomi: Table 4, 30 hr at room temperature, compared to control
# Description: as §1, §2, §3, §4
# as §2, with “Tests were conducted as similarly described for Systems 1 and 2 above (FIG. 9) to ascertain” for “FIG. 9 depicts”
# Rhizoctonia solani = experiment: as above; settings: for percent inhibition of the growth of Rhizoctonia solani: Table 4, 30 hr at room temperature, compared to control
# Description: as §1, §2, §3, §4
# as §2, with “Tests were conducted as similarly described for Systems 1 and 2 above (FIG. 9) to ascertain” for “FIG. 9 depicts”
# Trichoderma viridae = experiment: as above; settings: for percent inhibition of the growth of Trichoderma viridae: Table 4, 30 hr at room temperature, compared to control
# Description: as §1, §2, §3, §4
# as §2, with “Tests were conducted as similarly described for Systems 1 and 2 above (FIG. 9) to ascertain” for “FIG. 9 depicts”
# Verticillium dahliae = experiment: as above; settings: for percent inhibition of the growth of Verticillium dahliae: Table 4, 30 hr at room temperature, compared to control
# Description: as §1, §2, §3, §4
# as §2, with “Tests were conducted as similarly described for Systems 1 and 2 above (FIG. 9) to ascertain” for “FIG. 9 depicts”
# Pythium ultimum = experiment: as above; settings: for percent inhibition of the growth of Pythium ultimum: Table 4, 30 hr at room temperature, compared to control
# Description: as §1, §2, §3, §4
# as §2, with “Tests were conducted as similarly described for Systems 1 and 2 above (FIG. 9) to ascertain” for “FIG. 9 depicts”
# Candida albicans = experiment: plate bioassay of volatile test mixtures, relative growth of streak
# Description: as §1, §2, §3, §4
# as §2, with “Tests were conducted as similarly described for Systems 1 and 2 above (FIG. 9) to ascertain” for “FIG. 9 depicts”
# Saccharomyces cerevicae = experiment: as above; settings: for growth of Saccharomyces cerevisiae: Table 4, 30 hr at room temperature
# Description: as §1, §2, §3, §4
# as §2, with “Tests were conducted as similarly described for Systems 1 and 2 above (FIG. 9) to ascertain” for “FIG. 9 depicts”
# Escherichia coli = experiment: as above
# Description: as §1, §2, §3, §4
# as §2, with “Tests were conducted as similarly described for Systems 1 and 2 above (FIG. 9) to ascertain” for “FIG. 9 depicts”
# Bacillus subtilus = experiment: as above
# Description: as §1, §2, §3, §4
# as §2, with “Tests were conducted as similarly described for Systems 1 and 2 above (FIG. 9) to ascertain” for “FIG. 9 depicts”
# Aspergillus fumigatus = experiment: plate bioassay of volatile test mixtures, growth inhibition; settings: 30 hr at 22° C.; esters with 1:1 v/v propanoic acid and isobutryic acid (acids to ester 7:2 v/v), 9 ul; acids 7 ul
# Description: as §1, §3, §4
# Fusarium subglutinans = experiment: as above; settings: 30 hr at 22° C.; esters with 1:1 v/v propanoic acid and isobutryic acid (acids to ester 7:2 v/v), 9 ul; acids 7 ul
# Description: as §1, §3, §4
# Sclerotinia sclerotiorum = experiment: as above; settings: for percent inhibition of the growth of Sclerotinia sclerotiorum: Table 4, 30 hr at room temperature, compared to control
# Description: as §1, §2, §3
# The tests were conducted over the course of 30 hr at 22° C. Measurements were made on appropriate controls and thus the percentage of inhibition calculations could be made on treatments vs the growth on a control organism (non-treated). The bacteria and yeast like organisms were evaluated on the basis of relative growth rates after 30 hr. […] The acids were added at […] individually and combination of the esters with the acids were added at the […] in the plate assay.
# as §2, with “Tests were conducted as similarly described for Systems 1 and 2 above (FIG. 9) to ascertain” for “FIG. 9 depicts”
# Aspergillus flavus = experiment: as above; settings: Table 4; 30 hr at room temperature, compared to control
# Description: as §2
# as §2, with “Tests were conducted as similarly described for Systems 1 and 2 above (FIG. 9) to ascertain” for “FIG. 9 depicts”
# (§5) All testing was done according to the methods in Table 4
# Fusarium solani = experiment: as above; settings: Table 4; 30 hr at room temperature, compared to control
# Description: as §2
# as §2, with “Tests were conducted as similarly described for Systems 1 and 2 above (FIG. 9) to ascertain” for “FIG. 9 depicts”
# as §5
# [1] = 30 hr at 22° C., esters with 1:1 v/v propanoic acid and isobutryic acid (acids to ester 7:2 v/v), 9 ul, acids 7 ul
# [2] = Table 4, 30 hr at room temperature
# [3] = relative growth after 30 hr at 22° C., esters with 1:1 v/v propanoic acid and isobutryic acid (7:2 v/v), 9 ul, acids 7 ul
Molecule,percent inhibition of the growth of Cercospora beticola (Cercospora beticola) [%],percent inhibition of the growth of Phytophthora cinnamomi (Phytophthora cinnamomi) [%],percent inhibition of the growth of Rhizoctonia solani (Rhizoctonia solani) [%],percent inhibition of the growth of Trichoderma viridae (Trichoderma viridae) [%],percent inhibition of the growth of Verticillium dahliae (Verticillium dahliae) [%],percent inhibition of the growth of Pythium ultimum (Pythium ultimum) [%],growth of Candida albicans (Candida albicans; [2]),growth of Saccharomyces cerevisiae (Saccharomyces cerevicae),growth of Escherichia coli (Escherichia coli; [2]),growth of Bacillus subtilus (Bacillus subtilus; [2]),percent inhibition of the growth of Sclerotinia sclerotiorum (Sclerotinia sclerotiorum) [%],percent inhibition of the growth of Aspergillus flavus (Aspergillus flavus) [%],percent inhibition of the growth of Fusarium solani (Fusarium solani) [%],further results
"CCC(=O)O [Propanoic Acid, reference compound]",66,38,81,45,83,100,Medium,Yes,No,No,0,52,17,inhibition of Cercospora beticola (Cercospora beticola; [1]): 95%; inhibition of Phytophthora cinnamomi (Phytophthora cinnamomi; [1]): 67%; inhibition of Rhizoctonia solani (Rhizoctonia solani; [1]): 100%; inhibition of Trichoderma viridae (Trichoderma viridae; [1]): 53%; inhibition of Verticillium dahliae (Verticillium dahliae; [1]): 96%; inhibition of Pythium ultimum (Pythium ultimum; [1]): 91%; growth of Candida albicans (Candida albicans; [3]): Growth Observed; growth of Saccharomyces cerevicae (Saccharomyces cerevicae; [3]): Growth Observed; growth of Escherichia coli (Escherichia coli; [3]): No Growth; growth of Bacillus subtilus (Bacillus subtilus; [3]): No Growth; inhibition of Aspergillus fumigatus (Aspergillus fumigatus): 80%; inhibition of Fusarium subglutinans (Fusarium subglutinans): 83%; inhibition of Sclerotinia sclerotiorum (Sclerotinia sclerotiorum; [1]): 60%
Isoamyl Hexonates [reference compound],83,13,0,13,0,28,Yes,Yes,Yes,Yes,66,66,83,–
